Test results published in patent publication US10195196B2, “1,4-disubstituted pyridazine analogs there of and methods for treating SMN-deficiency-related conditions” (NOVARTIS AG, priority 2012, dated 2019).

Test system: SMN protein
Assay: cellular SMN ELISA (SMN protein elevation)
Assay type: cell-based
Settings: myoblast cell line from SMNdelta7 mouse model, 24 hours treatment; for SMN activity Fold: fold activation over DMSO control
In short: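 Readout is fold SMN elevation versus DMSO plus EC50, measured by anti-SMN capture ELISA with 450 nm absorbance. Lysates came from a myoblast line of the SMNdelta7 mouse model after 24 h compound exposure, with dose ranges of 20 nM–10 μM (condition 1) or 100 pM–10 μM (condition 2).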

[1] = ELISA condition 2: compound concentration 100 pM-10 uM
[2] = ELISA condition 1: compound concentration range 20 nM-10 uM

Oc1ccc2cc(-c3ccc(C4=CCNCC4)nn3)c(O)cc2c1 [Example 19-4, 3-(6-(1,2,3,6-tetrahydropyridin-4-yl)pyridazin-3-yl)naphthalene-2,7-diol]
EC50 [1]: 0.025 µM | SMN activity Fold [1]: 2.47 Fold

CC1(C)C=C(c2ccc(-c3cc4ccc(O)cc4cc3O)nn2)CC(C)(C)N1 [Example 19-5, 3-(6-(2,2,6,6-tetramethyl-1,2,3,6-tetrahydropyridin-4-yl)pyridazin-3-yl)naphthalene-2,7-diol]
EC50 [1]: 0.402 µM | SMN activity Fold [1]: 2.58 Fold

CN1CC=C(c2ccc(-c3cc4ccc(O)cc4cc3O)nn2)CC1 [Example 19-6, 3-(6-(1-methyl-1,2,3,6-tetrahydropyridin-4-yl)pyridazin-3-yl)naphthalene-2,7-diol]
EC50 [1]: 0.04 µM | SMN activity Fold [1]: 2.33 Fold

Oc1ccc2cc(-c3ccc(C4CCNCC4)nn3)c(O)cc2c1 [Example 19-7, 3-(6-(piperidin-4-yl)pyridazin-3-yl)naphthalene-2,7-diol]
EC50 [1]: 0.037 µM | SMN activity Fold [1]: 3.07 Fold

CC1(C)CC(Oc2ccc(-c3cc4ccc(O)cc4cc3O)nn2)CC(C)(C)N1 [Example 20-1, 3-(6-((2,2,6,6-tetramethylpiperidin-4-yl)oxy)pyridazin-3-yl)naphthalene-2,7-diol]
EC50 [1]: 0.018 µM | SMN activity Fold [1]: 2.75 Fold

CN(c1ccc(-c2cc3ccc(O)cc3cc2O)nn1)C1CC(C)(C)NC(C)(C)C1 [Example 20-2, 3-(6-(methyl(2,2,6,6-tetramethylpiperidin-4-yl)amino)pyridazin-3-yl)naphthalene-2,7-diol]
EC50 [1]: 0.004 µM | SMN activity Fold [1]: 2.79 Fold

CC1(C)CC(Nc2ccc(-c3cc4ccc(O)cc4cc3O)nn2)CC(C)(C)N1 [Example 20-3, 3-(6-((2,2,6,6-tetramethylpiperidin-4-yl)amino)pyridazin-3-yl)naphthalene-2,7-diol]
EC50 [1]: 0.008 µM | SMN activity Fold [1]: 3.42 Fold

CN(c1ccc(-c2cc3ccc(OCCCNC(=O)OC(C)(C)C)cc3cc2O)nn1)C1CC(C)(C)NC(C)(C)C1 [Example 20-4, [3-(7-hydroxy-6-{6-[methyl-(2,2,6,6-tetramethyl-piperidin-4-yl)-amino]-pyridazin-3-yl}-naphthalen-2-yloxy)-propyl]-carbamic acid tert-butyl ester]
EC50 [2]: 0.31 µM | SMN activity Fold [2]: 2.32 Fold

CN(c1ccc(-c2cc3ccc(OCCCN)cc3cc2O)nn1)C1CC(C)(C)NC(C)(C)C1 [Example 20-5, 7-(3-amino-propoxy)-3-{6-[methyl-(2,2,6,6-tetramethyl-piperidin-4-yl)-amino]-pyridazin-3-yl}-naphthalen-2-ol]
EC50 [1]: 0.006 µM | SMN activity Fold [1]: 2.66 Fold

CC(=O)NCCCOc1ccc2cc(-c3ccc(N(C)C4CC(C)(C)NC(C)(C)C4)nn3)c(O)cc2c1 [Example 20-6, N-[3-(7-hydroxy-6-{6-[methyl-(2,2,6,6-tetramethyl-piperidin-4-yl)-amino]-pyridazin-3-yl}-naphthalen-2-yloxy)-propyl]-acetamide]
EC50 [1]: 0.05 µM | SMN activity Fold [1]: 2.18 Fold

CN(c1ccc(-c2cc3ccc(OCCCO)cc3cc2O)nn1)C1CC(C)(C)NC(C)(C)C1 [Example 20-7, 7-(3-hydroxypropoxy)-3-(6-(methyl(2,2,6,6-tetramethylpiperidin-4-yl)amino)pyridazin-3-yl)naphthalen-2-ol]
EC50 [1]: 0.007 µM | SMN activity Fold [1]: 2.75 Fold

COCCCOc1ccc2cc(-c3ccc(N(C)C4CC(C)(C)NC(C)(C)C4)nn3)c(O)cc2c1 [Example 20-8, 7-(3-methoxypropoxy)-3-(6-(methyl(2,2,6,6-tetramethylpiperidin-4-yl)amino)pyridazin-3-yl)naphthalen-2-ol]
EC50 [1]: 0.03 µM | SMN activity Fold [1]: 2.61 Fold

CC1(C)CC(Oc2ccc(-c3cc4ccc(OCCN5CCOCC5)cc4cc3O)nn2)CC(C)(C)N1 [Example 20-9, 7-(2-morpholinoethoxy)-3-(6-((2,2,6,6-tetramethylpiperidin-4-yl)oxy)pyridazin-3-yl)naphthalen-2-ol]
EC50 [1]: 0.176 µM | SMN activity Fold [1]: 2.44 Fold

Oc1cc2ccccc2cc1-c1ccc(CC2CCNCC2)nn1 [Example 21-1, 3-(6-(piperidin-4-ylmethyl)pyridazin-3-yl)naphthalen-2-ol]
EC50 [1]: 0.959 µM | SMN activity Fold [1]: 2.35 Fold

CC1(C)CC(Cc2ccc(-c3ccc(-n4cccn4)cc3O)nn2)CC(C)(C)N1 [Example 21-2, 5-(1H-pyrazol-1-yl)-2-(6-((2,2,6,6-tetramethylpiperidin-4-yl)methyl)pyridazin-3-yl)phenol]
EC50 [1]: 0.206 µM | SMN activity Fold [1]: 2.69 Fold

C[C@H](O)[C@@H]1CC(Oc2ccc(-c3ccc(-n4cccn4)cc3O)nn2)CC(C)(C)N1 (some centres unmarked) [Example 23-1]
EC50 [1]: 3.65 µM | SMN activity Fold [1]: 2.32 Fold

CN(c1ccc(-c2cc3ccc(C#N)cc3cc2O)nn1)C1CC(C)(C)NC(C)(C)C1 [Example 24-1, 7-hydroxy-6-(6-(methyl(2,2,6,6-tetramethylpiperidin-4-yl)amino)pyridazin-3-yl)-2-naphthonitrile]
EC50 [1]: 0.016 µM | SMN activity Fold [1]: 3.14 Fold

CN(c1ccc(-c2cc3ccc(CN4CCCCC4)cc3cc2O)nn1)C1CC(C)(C)NC(C)(C)C1 [Example 24-2, 3-(6-(methyl(2,2,6,6-tetramethylpiperidin-4-yl)amino)pyridazin-3-yl)-7-(piperidin-1-ylmethyl)naphthalen-2-ol]
EC50 [1]: 0.157 µM | SMN activity Fold [1]: 2.33 Fold

CN(c1ccc(-c2cc3ccc(CN4CCCC4)cc3cc2O)nn1)C1CC(C)(C)NC(C)(C)C1 [Example 24-3, 3-(6-(methyl(2,2,6,6-tetramethylpiperidin-4-yl)amino)pyridazin-3-yl)-7-(pyrrolidin-1-ylmethyl)naphthalen-2-ol]
EC50 [1]: 0.12 µM | SMN activity Fold [1]: 2.75 Fold

CN(c1ccc(-c2cc3ccc(O)c(Br)c3cc2O)nn1)C1CC(C)(C)NC(C)(C)C1 [Example 24-4, 1-bromo-6-(6-(methyl(2,2,6,6-tetramethylpiperidin-4-yl)amino)pyridazin-3-yl)naphthalene-2,7-diol]
EC50 [1]: 0.016 µM | SMN activity Fold [1]: 3.06 Fold

CN(c1ccc(-c2cc3ccc(O)c(Cl)c3cc2O)nn1)C1CC(C)(C)NC(C)(C)C1 [Example 24-5, 1-chloro-6-(6-(methyl(2,2,6,6-tetramethylpiperidin-4-yl)amino)pyridazin-3-yl)naphthalene-2,7-diol]
EC50 [1]: 0.047 µM | SMN activity Fold [1]: 2.99 Fold

COc1ccc2cc(-c3ccc(N(C)C4CC(C)(C)NC(C)(C)C4)nn3)c(O)cc2c1 [Example 24-6, 7-methoxy-3-(6-(methyl(2,2,6,6-tetramethylpiperidin-4-yl)amino)pyridazin-3-yl)naphthalen-2-ol]
EC50 [1]: 0.006 µM | SMN activity Fold [1]: 2.39 Fold

COc1ccc2cc(-c3ccc(N(C)C4CC(C)(C)N(C)C(C)(C)C4)nn3)c(O)cc2c1 [Example 24-7, 7-methoxy-3-(6-(methyl(1,2,2,6,6-pentamethylpiperidin-4-yl)amino)pyridazin-3-yl)naphthalen-2-ol]
EC50 [1]: 0.031 µM | SMN activity Fold [1]: 2.57 Fold

CN(c1ccc(-c2cc3ccc(C4=CCOCC4)cc3cc2O)nn1)C1CC(C)(C)NC(C)(C)C1 [Example 24-8, 7-(3,6-dihydro-2H-pyran-4-yl)-3-(6-(methyl(2,2,6,6-tetramethylpiperidin-4-yl)amino)pyridazin-3-yl)naphthalen-2-ol]
EC50 [1]: 0.007 µM | SMN activity Fold [1]: 2.39 Fold

CN(c1ccc(-c2cc3ccc(C4CCOCC4)cc3cc2O)nn1)C1CC(C)(C)NC(C)(C)C1 [Example 24-9, 3-(6-(methyl(2,2,6,6-tetramethylpiperidin-4-yl)amino)pyridazin-3-yl)-7-(tetrahydro-2H-pyran-4-yl)naphthalen-2-ol]
EC50 [1]: 0.338 µM | SMN activity Fold [1]: 2.65 Fold

CN(c1ccc(-c2cc3ccc(C(F)F)cc3cc2O)nn1)C1CC(C)(C)NC(C)(C)C1 [Example 24-10, 7-(difluoromethyl)-3-(6-(methyl(2,2,6,6-tetramethylpiperidin-4-yl)amino)pyridazin-3-yl)naphthalen-2-ol]
EC50 [1]: 0.113 µM | SMN activity Fold [1]: 3.14 Fold

CN(c1ccc(-c2cc3ccc(OC(C)(C)CCO)cc3cc2O)nn1)C1CC(C)(C)NC(C)(C)C1 [Example 24-11, 7-((4-hydroxy-2-methylbutan-2-yl)oxy)-3-(6-(methyl(2,2,6,6-tetramethylpiperidin-4-yl)amino)pyridazin-3-yl)naphthalen-2-ol]
EC50 [1]: 0.133 µM | SMN activity Fold [1]: 2.54 Fold

CN(c1ccc(-c2cc3ccc(OCCC(C)(C)O)cc3cc2O)nn1)C1CC(C)(C)NC(C)(C)C1 [Example 24-12, 7-(3-hydroxy-3-methylbutoxy)-3-(6-(methyl(2,2,6,6-tetramethylpiperidin-4-yl)amino)pyridazin-3-yl)naphthalen-2-ol]
EC50 [1]: 0.07 µM | SMN activity Fold [1]: 2.80 Fold

CN(c1ccc(-c2c(O)cc(-c3cn[nH]c3)cc2O)nn1)C1CC(C)(C)NC(C)(C)C1 [Example 25-1, 2-(6-(methyl(2,2,6,6-tetramethylpiperidin-4-yl)amino)pyridazin-3-yl)-5-(1H-pyrazol-4-yl)benzene-1,3-diol]
EC50 [1]: 0.084 µM | SMN activity Fold [1]: 2.58 Fold

COc1cc(-c2cn[nH]c2)cc(O)c1-c1ccc(N(C)C2CC(C)(C)NC(C)(C)C2)nn1 [Example 25-2, 3-methoxy-2-(6-(methyl(2,2,6,6-tetramethylpiperidin-4-yl)amino)pyridazin-3-yl)-5-(1H-pyrazol-4-yl)phenol]
EC50 [1]: 0.008 µM | SMN activity Fold [1]: 3.44 Fold

CC1(C)CC(Nc2ccc(-c3c(O)cc(-c4cn[nH]c4)cc3OC(F)(F)F)nn2)CC(C)(C)N1 [Example 25-3, 5-(1H-pyrazol-4-yl)-2-(6-((2,2,6,6-tetramethylpiperidin-4-yl)amino)pyridazin-3-yl)-3-(trifluoromethoxy)phenol]
EC50 [1]: 0.119 µM | SMN activity Fold [1]: 2.39 Fold
